The values that follow come from patent publication US4563470A, “N-Substituted α,ωamino and imino-sulfonic acid salts and their application as cationic vectors of high cellular penetration” (Les Laboratories Meram, priority 1982, dated 1986).

Read-outs that look alike come from different tables or passages of the source.

A short description of one data set: Solubility. The class given is physicochemical.
The subject of a further data set is Swiss I.O.P.S. mice. Description: in vivo. The note with it: Swiss I.O.P.S. mouse; for LD50 by gastric tubage (B): oral. As to the method:
(§1) The study is carried out with Swiss I.O.P.S. mice, in lots of 20 animals of both sexes.

The next data set can be described thus: in vivo. The note with it: mouse, in vivo, Swiss I.O.P.S. mouse. As for the experimental part:
as §1

The nature of data set [1]: Acute toxicity LD50 oral vs i.p. and B/P ratio, sodium salts (species not restated). Format: in vivo. As to conditions: for selectivity ratio / LD50: in vivo. The text has this:
While the ratio for the reference salt, sodium chloride, is greater than 205.4/61.2=3.36, it is, for the imino compounds of Examples 1 and 5 7.0/3.0=2.33 and 6.7/4.4=1.52, respectively, and, for the amino compounds of Examples 2 and 6 (while not strictly determined but without doubt greater than 1), respectively greater than 20.1/20.1=1 and greater than […].

The mark [2] stands for this setting: oral, read-out: LD50 by gastric tubage (B).

On to `Cc1ncc(CO)c(C=NCCCS(=O)(=O)O)c1O` [Example 12, Calcium γ-(3-hydroxy-5-hydroxymethyl-2-methyl-4-pyridylmethyleneimino)propanesulfonate], for which the solubility in acetone entry in the data set “Solubility” (acetone) is on record as “Insoluble”. The solubility in methanol result in the data set “Solubility” (methanol) is “Soluble”. Also, the solubility in water entry in “Solubility” (water) was “Soluble”. Also, in the data set on Swiss I.O.P.S. mice, the “B/P ratio (oral LD50 / i.p. LD50)” value is listed as 3.3. Moreover, the 50% lethal dose (LD50) in the data set “in vivo” (ip, LD50 i.p. (P)) was determined as 2400 µmol/kg; in “in vivo” (po, LD50 by gastric tubage (B)) it was 8100 µmol/kg.
Regarding `Cc1ncc(CO)c(C=NCCCS(=O)(=O)O)c1O` [Example 7, Potassium γ-(3-hydroxy-5-hydroxymethyl-2-methyl-4-pyridylmethyleneimino)propanesulfonate], in “Solubility” (acetone), the solubility in acetone entry was “Insoluble”. Also, the solubility in water result in the data set “Solubility” (water) is “Soluble”. In the data set on Swiss I.O.P.S. mice, the “B/P ratio (oral LD50 / i.p. LD50)” value was determined as 1.75 and the “LD50 by gastric tubage (B)” value is recorded as 7.0 mmol/kg.
On to `Cc1ncc(CO)c(C=NCCCS(=O)(=O)O)c1O` [lithium γ-(3-hydroxy-5-hydroxymethyl-2-methyl-4-pyridylmethy] [lithium γ-(3-hydroxy-5-hydroxymethyl-2-methyl-4-pyridylmethyleneimino)propanesulfonate], for which, in “Solubility” (acetone), the solubility in acetone result is “insoluble”. The solubility in water result in the data set “Solubility” (water) is reported as “soluble”.
`Cc1ncc(CO)c(C=NCCS(=O)(=O)O)c1O` [Example 1, Sodium β-(3-hydroxy-5-hydroxymethyl-2-methyl-4-pyridylmethyleneimino)ethanesulfonate]: the “solubility in alcohol / ethanol” value in “Solubility” (alcohol or ethanol) is given as “Insoluble”. The selectivity ratio in data set [1] worked out at 2.33. Further, the LD50 is 3000 µmol/kg in data set [1] (ip, read-out: LD50 i.p. (P)) and 7000 µmol/kg in data set [1] (setting [2]).
Take `Cc1ncc(CO)c(C=NCCS(=O)(=O)O)c1O` [Example 9, Lithium β-(3-hydroxy-5-hydroxymethyl-2-methyl-4-pyridylmethyleneimino)ethanesulfonate]: the solubility in acetone entry in “Solubility” (acetone) is listed as “Insoluble”. Further, in the data set “Solubility” (water), the solubility in water result is “Soluble”.
As for `Cc1ncc(CO)c(CNCCS(=O)(=O)[O-])c1O.[Li+]`, in “Solubility”, the solubility in acetone result is on record as “Insoluble” and the solubility in water entry was “Soluble”.
With `[Ca+2].[Cl-].[Cl-]` [CaCl2, reference compound], in the data set on Swiss I.O.P.S. mice, the “B/P ratio (oral LD50 / i.p. LD50)” value was above 9.2 and the “LD50 by gastric tubage (B)” value is reported as “greater than 36.5 mmol/kg”.
For the compound `Cc1ncc(CO)c(C=NCCS(=O)(=O)O)c1O` [Example 3, Potassium β-(3-hydroxy-5-hydroxymethyl-2-methyl-4-pyridylmethyleneimino)ethanesulfonate], in the data set on Swiss I.O.P.S. mice, the “B/P ratio (oral LD50 / i.p. LD50)” value worked out at 1.79 and the “LD50 by gastric tubage (B)” value is given as 7.0 mmol/kg.
With `[Cl-].[Na+]` [sodium chloride, reference compound], in data set [1], the “B/P ratio (oral LD50 / i.p. LD50)” value is listed as above 3.36. The “LD50 by gastric tubage (B)” value in data set [1] (oral) is listed as “greater than 205.4 mmol/kg”.
As to `[Cl-].[K+]` [potassium chloride, reference compound], in the data set on Swiss I.O.P.S. mice, the “B/P ratio (oral LD50 / i.p. LD50)” value was above 7.25 and the “LD50 by gastric tubage (B)” value is given as “greater than 107.3 mmol/kg”.
As to `Cc1ncc(CO)c(C=NCCS(=O)(=O)O)c1O` [Example 11, Calcium β-(3-hydroxy-5-hydroxymethyl-2-methyl-4-pyridylmethyleneimino)ethanesulfonate], the “B/P ratio (oral LD50 / i.p. LD50)” value in the data set with Swiss I.O.P.S. mice turned out to be 2.96. Moreover, the LD50 came to 2600 µmol/kg in the data set “in vivo” (ip, LD50 i.p. (P)) and 7700 µmol/kg in “in vivo” (po, LD50 by gastric tubage (B)).
Regarding `Cc1ncc(CO)c(CNCCCS(=O)(=O)[O-])c1O.[Na+]`, the solubility in acetone entry in “Solubility” (acetone) was “Insoluble”. In addition, the solubility in water result in “Solubility” (water) is given as “Soluble”. Also, in data set [1], the selectivity ratio is above 1.43. The median lethal dose (LD50) is 13000 µmol/kg in data set [1] (ip, read-out: LD50 i.p. (P)) and above 19200 µmol/kg in data set [1] (setting [2]).
In the case of `Cc1ncc(CO)c(CNCCCS(=O)(=O)[O-])c1O.[Li+]`, in the data set “Solubility”, the solubility in acetone entry is on record as “insoluble” and the solubility in water entry was “soluble”.
As to `Cc1ncc(CO)c(CNCCS(=O)(=O)[O-])c1O.[K+]`, in “Solubility”, the solubility in acetone result is on record as “Insoluble” and the solubility in water result is given as “Soluble”. The selectivity ratio in “in vivo” (B/P ratio (oral LD50 / i.p. LD50)) was 1.2. The compound further came in with an LD50 in “in vivo” (ip, LD50 i.p. (P)) of 13000 µmol/kg. In “in vivo” (po, LD50 by gastric tubage (B)), the median lethal dose (LD50) amounted to 15700 µmol/kg.
